Structures are written as SMILES. Where only a bound is given, the exact number is not on record here.

Assay [1] has as its system Glomerella lagenarium (Colletotrichum lagenarium). Kind of assay: Glomerella lagenarium (Colletotrichum lagenarium) liquid culture / cucumber / preventative (anthracnose). The format is cell-based. The note with it: Colletotrichum orbiculare; 20 ppm in the applied formulation; conidia in PDB nutrient broth, 24° C.; 3 to 4 days after application; compared to untreated; read-out: disease control (inhibition of growth measured photometrically). How it is done: Mycelia fragments or conidia suspensions of a fungus prepared either freshly from liquid cultures of the fungus or from cryogenic storage, are directly mixed into nutrient broth. DMSO solutions of the test compound (max. 10 mg/ml) are diluted with 0.025% Tween20 by a factor of 50 and 10 µl of this solution is pipetted into a microtiter plate (96-well format). The nutrient broth containing the fungal spores/mycelia fragments is then added to give an end concentration of the tested compound. The test plates are incubated in the dark at 24° C. and 96% relative humidity. The inhibition of fungal growth is determined photometrically after 2 to 7 days, depending on the pathosystem, and percent antifungal activity relative to the untreated check is calculated. Conidia of the fungus from cryogenic storage are directly mixed into nutrient broth (PDB—potato dextrose broth). After placing a (DMSO) solution of test compound into a microtiter plate (96-well format), the nutrient broth containing the fungal spores is added. The test plates are incubated at 24° C. and the inhibition of growth is measured photometrically 3 to 4 days after application. The following compounds at 20 ppm in the applied formulation give at least 80% disease control in this test when compared to untreated control under the same conditions, which show extensive disease development.

The subject of assay [2] is Puccinia recondita f. sp. Tritici. Kind of assay: Puccinia recondita f. sp. tritici / wheat / leaf disc preventative (brown rust). It is filed as in vivo. Conditions: foliar, 200 ppm in the applied formulation, wheat leaf segments cv. Kanzler, inoculated 1 day after application, compared to untreated, assessed 7 to 9 days after application, read-out: disease control. How it is done: Leaf disks or leaf segments of various plant species are cut from plants grown in a greenhouse. The cut leaf disks or segments are placed in multiwell plates (24-well format) onto water agar. The leaf disks are sprayed with a test solution before (preventative) or after (curative) inoculation. Compounds to be tested are prepared as DMSO solutions (max. 10 mg/ml) which are diluted to the appropriate concentration with 0.025% Tween20 just before spraying. The inoculated leaf disks or segments are incubated under defined conditions (temperature, relative humidity, light, etc.) according to the respective test system. A single evaluation of disease level is carried out 3 to 14 days after inoculation, depending on the pathosystem. Percent disease control relative to the untreated check leaf disks or segments is then calculated. Wheat leaf segments cv. Kanzler were placed on agar in multiwell plates (24-well format) and sprayed with the formulated test compound diluted in water. The leaf disks were inoculated with a spore suspension of the fungus 1 day after application. The inoculated leaf segments were incubated at 19° C. and 75% relative humidity (rh) under a light regime of 12 hours light/12 hours darkness in a climate cabinet and the activity of a compound was assessed as percent disease control compared to untreated when an appropriate level of disease damage appears in untreated check leaf segments (7 to 9 days after application). The following compounds at 200 ppm in the applied formulation give at least 80% disease control in this test when compared to untreated control leaf disks under the same conditions, which show extensive disease development.

For assay [3] the test system is unchanged. Kind of assay: Puccinia recondita f. sp. tritici / wheat / leaf disc curative (brown rust). It is filed as in vivo. Conditions: foliar, 200 ppm in the applied formulation, wheat leaf segments cv. Kanzler, applied 1 day after inoculation, compared to untreated, assessed 6 to 8 days after application, read-out: disease control. On the procedure: Leaf disks or leaf segments of various plant species are cut from plants grown in a greenhouse. The cut leaf disks or segments are placed in multiwell plates (24-well format) onto water agar. The leaf disks are sprayed with a test solution before (preventative) or after (curative) inoculation. Compounds to be tested are prepared as DMSO solutions (max. 10 mg/ml) which are diluted to the appropriate concentration with 0.025% Tween20 just before spraying. The inoculated leaf disks or segments are incubated under defined conditions (temperature, relative humidity, light, etc.) according to the respective test system. A single evaluation of disease level is carried out 3 to 14 days after inoculation, depending on the pathosystem. Percent disease control relative to the untreated check leaf disks or segments is then calculated.
Wheat leaf segments cv. Kanzler are placed on agar in multiwell plates (24-well format). The leaf segments are then inoculated with a spore suspension of the fungus. Plates were stored in darkness at 19° C. and 75% relative humidity. The formulated test compound diluted in water was applied 1 day after inoculation. The leaf segments were incubated at 19° C. and 75% relative humidity under a light regime of 12 hours light/12 hours darkness in a climate cabinet and the activity of a compound was assessed as percent disease control compared to untreated when an appropriate level of disease damage appears in untreated check leaf segments (6 to 8 days after application).
The following compounds at 200 ppm in the applied formulation give at least 80% disease control in this test when compared to untreated control leaf disks under the same conditions, which show extensive disease development.

On to `C#CCNS(=O)(=O)N(C)Cc1ccc(-c2noc(C(F)(F)F)n2)cc1` [Compound 1.19, 3-[4-[[methyl(prop-2-ynylsulfamoyl)amino]methyl]phenyl]-5-(trifluoromethyl)-1,2,4-oxadiazole], for which the inhibition at 20 ppm in assay [1] was ≥ 80%. For the same compound, the pest or weed control at 200 ppm in assay [2] and in assay [3] was ≥ 80% throughout.
Consider `C#CCNS(=O)(=O)N(Cc1ccc(-c2noc(C(F)(F)F)n2)cc1)C1CC1` [Compound 1.20, 3-[4-[[cyclopropyl(prop-2-ynylsulfamoyl)amino]methyl]phenyl]-5-(trifluoromethyl)-1,2,4-oxadiazole], for which the inhibition at 20 ppm in assay [1] is ≥ 80%. Also, in assay [3], the pest or weed control at 200 ppm was ≥ 80%.
Consider `CCCS(=O)(=O)N(C)Cc1ccc(-c2noc(C(F)(F)F)n2)cc1` [Compound 1.25, N-methyl-N-[[4-[5-(trifluoromethyl)-1,2,4-oxadiazol-3-yl]phenyl]methyl] propane-1-sulfonamide], for which the inhibition at 20 ppm in assay [1] was ≥ 80%. Besides, the pest or weed control at 200 ppm in assay [2] and in assay [3] was ≥ 80% in each case.
In the case of `CCN(Cc1ccc(-c2noc(C(F)(F)F)n2)cc1)S(=O)(=O)c1ccn(C)n1` [Compound 1.29, N-ethyl-1-methyl-N-[[4-[5-(trifluoromethyl)-1,2,4-oxadiazol-3-yl]phenyl]methyl] pyrazole-3-sulfonamide], the inhibition at 20 ppm in assay [1] is ≥ 80%. Also, the pest or weed control at 200 ppm in assay [2] and in assay [3] was ≥ 80% throughout.
For the compound `CCN(Cc1ccc(-c2noc(C(F)(F)F)n2)cc1)S(=O)(=O)C1CC1` [Compound 1.33, N-ethyl-N-[[4-[5-(trifluoromethyl)-1,2,4-oxadiazol-3-yl]phenyl]methyl] cyclopropanesulfonamide], the inhibition at 20 ppm in assay [1] was ≥ 80%. The pest or weed control at 200 ppm in assay [2] and in assay [3] was ≥ 80% in each case.
`C=CCS(=O)(=O)N(CC)Cc1ccc(-c2noc(C(F)(F)F)n2)cc1` [Compound 1.34, N-ethyl-N-[[4-[5-(trifluoromethyl)-1,2,4-oxadiazol-3-yl]phenyl]methyl] prop-2-ene-1-sulfonamide]: the inhibition at 20 ppm in assay [1] was ≥ 80%. Also, the pest or weed control at 200 ppm in assay [2] and in assay [3] was ≥ 80% in each case.
For the compound `CCN(Cc1ccc(-c2noc(C(F)(F)F)n2)cc1)S(=O)(=O)CC1CCOC1` (stereo not shown) [Compound 1.35, N-ethyl-1-tetrahydrofuran-3-yl-N-[[4-[5-(trifluoromethyl)-1,2,4-oxadiazol-3-yl]phenyl]methyl] methanesulfonamide], in assay [1], the inhibition at 20 ppm was ≥ 80%. For the same compound, the pest or weed control at 200 ppm in assay [2] and in assay [3] was ≥ 80% throughout.
Take `CCN(Cc1ccc(-c2noc(C(F)(F)F)n2)cc1)S(=O)(=O)CCOC` [Compound 1.37, N-ethyl-2-methoxy-N-[[4-[5-(trifluoromethyl)-1,2,4-oxadiazol-3-yl]phenyl]methyl] ethanesulfonamide]: in assay [1], the inhibition at 20 ppm is ≥ 80%. Moreover, the pest or weed control at 200 ppm in assay [2] and in assay [3] was ≥ 80% throughout.
In the case of `C/C=C/S(=O)(=O)N(CC)Cc1ccc(-c2noc(C(F)(F)F)n2)cc1` [Compound 1.39, (E)-N-ethyl-N-[[4-[5-(trifluoromethyl)-1,2,4-oxadiazol-3-yl]phenyl]methyl] prop-1-ene-1-sulfonamide], in assay [1], the inhibition at 20 ppm is ≥ 80%. In addition, the pest or weed control at 200 ppm in assay [2] and in assay [3] was ≥ 80% in each case.
`CN(Cc1ccc(-c2noc(C(F)(F)F)n2)cc1)S(=O)(=O)c1ccn(C)n1` [Compound 1.41, N,1-dimethyl-N-[[4-[5-(trifluoromethyl)-1,2,4-oxadiazol-3-yl]phenyl]methyl] pyrazole-3-sulfonamide]: the inhibition at 20 ppm in assay [1] was ≥ 80%. For the same compound, the pest or weed control at 200 ppm in assay [2] and in assay [3] was ≥ 80% throughout.
As to `C=CCS(=O)(=O)N(C)Cc1ccc(-c2noc(C(F)(F)F)n2)cc1` [Compound 1.46, N-methyl-N-[[4-[5-(trifluoromethyl)-1,2,4-oxadiazol-3-yl]phenyl]methyl] prop-2-ene-1-sulfonamide], the inhibition at 20 ppm in assay [1] is ≥ 80%. The pest or weed control at 200 ppm in assay [2] and in assay [3] was ≥ 80% each time.
`CN(Cc1ccc(-c2noc(C(F)(F)F)n2)cc1)S(=O)(=O)CC1CCOC1` (stereo not shown) [Compound 1.47, N-methyl-1-tetrahydrofuran-3-yl-N-[[4-[5-(trifluoromethyl)-1,2,4-oxadiazol-3-yl]phenyl]methyl] methanesulfonamide]: in assay [1], the inhibition at 20 ppm is ≥ 80%. Besides, the pest or weed control at 200 ppm in assay [2] and in assay [3] was ≥ 80% throughout.
For `COCCS(=O)(=O)N(C)Cc1ccc(-c2noc(C(F)(F)F)n2)cc1` [Compound 1.49, 2-methoxy-N-methyl-N-[[4-[5-(trifluoromethyl)-1,2,4-oxadiazol-3-yl]phenyl]methyl] ethanesulfonamide], the inhibition at 20 ppm in assay [1] was ≥ 80%. Also, the pest or weed control at 200 ppm in assay [2] and in assay [3] was ≥ 80% in each case.
As for `C=CCS(=O)(=O)N(CCC)Cc1ccc(-c2noc(C(F)(F)F)n2)cc1` [Compound 1.70, N-propyl-N-[[4-[5-(trifluoromethyl)-1,2,4-oxadiazol-3-yl]phenyl]methyl] prop-2-ene-1-sulfonamide], the inhibition at 20 ppm in assay [1] is ≥ 80%. Further, in assay [3], the pest or weed control at 200 ppm was ≥ 80%.
With `CCCN(Cc1ccc(-c2noc(C(F)(F)F)n2)cc1)S(=O)(=O)N(C)C` [Compound 1.81, N-(dimethylsulfamoyl)-N-[[4-[5-(trifluoromethyl)-1,2,4-oxadiazol-3-yl]phenyl]methyl] propan-1-amine], the inhibition at 20 ppm in assay [1] is ≥ 80%. Further, the pest or weed control at 200 ppm in assay [3] was ≥ 80%.
With `CC(C)S(=O)(=O)NCc1ccc(-c2noc(C(F)(F)F)n2)cc1F` [Compound 2.21, N-[[2-fluoro-4-[5-(trifluoromethyl)-1,2,4-oxadiazol-3-yl]phenyl]methyl] propane-2-sulfonamide], the pest or weed control at 200 ppm in assay [3] was ≥ 80%.
Consider `O=S(=O)(CC1CC1(Cl)Cl)NCc1ccc(-c2noc(C(F)(F)F)n2)cc1` (stereo not shown) [Compound 3.12, 1-(2,2-dichlorocyclopropyl)-N-[[4-[5-(trifluoromethyl)-1,2,4-oxadiazol-3-yl]phenyl]methyl] methanesulfonamide], for which the inhibition at 20 ppm in assay [1] is ≥ 80%. Further, the pest or weed control at 200 ppm in assay [2] is ≥ 80%.
For the compound `O=S(=O)(NCc1ccc(-c2noc(C(F)(F)F)n2)cc1)N1CCCC1` [Compound 3.13, N-[[4-[5-(trifluoromethyl)-1,2,4-oxadiazol-3-yl]phenyl]methyl] pyrrolidine-1-sulfonamide], in assay [1], the inhibition at 20 ppm was ≥ 80%. Besides, the pest or weed control at 200 ppm in assay [2] was ≥ 80%.
Take `O=S(=O)(CC1CC1(Cl)Cl)NCc1ccc(-c2noc(C(F)(F)F)n2)c(F)c1` (stereo not shown) [Compound 3.16, 1-(2,2-dichlorocyclopropyl)-N-[[3-fluoro-4-[5-(trifluoromethyl)-1,2,4-oxadiazol-3-yl]phenyl]methyl] methanesulfonamide]: the inhibition at 20 ppm in assay [1] is ≥ 80%. The pest or weed control at 200 ppm in assay [2] is ≥ 80%.
